Laboratory results from PMC8164657, “Intraoperative visualization of nerves using a myelin protein-zero specific fluorescent tracer” (EJNMMI Research, 2021).
≈ marks a conversion by molar mass, not a printed value. Where “and” joins values, the source holds several entries; their conditions need not be identical. Equal entries are not always repeated. Where two headings read alike, the source gives them in different places. Residues, ends and D or L forms follow the SMILES beside them. *: point of attachment. X1 = CC1(C)C(/C=C/C=C/C=C2/N(CCCCS(=O)(=O)O)c3ccc(S(=O)(=O)O)cc3C2(C)C)=[N+](CCCCCC(=O)NCCN2C(=O)CC(*)C2=O)c2ccc(S(=O)(=O)[O-])cc21; X2 = CC1(C)C(=C/C=C/C=C/C2=[N+](CCCCS(=O)(=O)O)c3ccc(S(=O)(=O)[O-])cc3C2(C)C)N(CCCCCC(=O)NCCN2C(=O)CC(*)C2=O)c2ccc(S(=O)(=O)O)cc21; Cy5 = far-red cyanine dye Cy5 on Cys

Tests used:
Solubility in H2O = format: physicochemical; details: water; saturated solution in H2O at r.t., centrifugation, absorption of supernatant (UV/Vis)
[1] = target: T1, P0 (P0-expressing RT4 D6P2T cells) (Rattus norvegicus, UniProt P06907); assay: Flow cytometric saturation binding (KD); details: saturation binding 0–2000 nM, flow cytometry APC-A channel, triplicate, repeated at least three times
T1 construct: was performed using P0-expressing RT4 D6P2T cells; host or cells: RT4 D6P2T Schwannoma cells
T1 sequence (P06907 30-248): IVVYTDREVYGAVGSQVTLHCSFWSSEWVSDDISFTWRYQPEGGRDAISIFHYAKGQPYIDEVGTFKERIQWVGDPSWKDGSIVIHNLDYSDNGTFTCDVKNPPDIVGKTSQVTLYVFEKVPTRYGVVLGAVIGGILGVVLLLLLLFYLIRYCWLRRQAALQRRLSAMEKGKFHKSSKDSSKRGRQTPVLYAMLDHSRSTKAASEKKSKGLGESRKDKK
Description: Analysis of the binding affinity (KD) of Cy5-P0_1–25, Cy5-P0_41–65, Cy5-P0_61–85, Cy5-P0_81–105, Cy5-P0_95–120 and Cy5-P0_101–125 for P0 was performed using P0-expressing RT4 D6P2T cells and a previously described flow cytometric method. For saturation, binding experiments were performed for each of the fluorescent peptides in a concentration range of 0–2000 nM. All measurements were taken in triplicate, and experiments were repeated at least three times per tracer. Fluorescence was measured using a FACSCanto II flow cytometry device (BD Biosciences) in the APC-A channel. The normalized geometric means were fitted with equations in the GraphPad Prism 5 software. A fluorescence-linked immunoabsorbent assay (FLISA) that was used to confirm the specificity of Cy5-P0_101–125 for P0 is described in Additional file 1: Fluorescence-linked immunoabsorbent assay.

[2] = target: T2, P0 (RT4 D6P2T Schwannoma cells) (Rattus norvegicus, UniProt P06907); assay: Blocking experiment with P0Ab; format: cell-based; details: 5 µL of 1 mg/mL P0Ab one hour prior to tracer; N = 10; ImageJ quantification; p = 0.001
T2 construct: was performed using P0-expressing RT4 D6P2T cells; host or cells: RT4 D6P2T Schwannoma cells
T2 sequence (P06907 30-248): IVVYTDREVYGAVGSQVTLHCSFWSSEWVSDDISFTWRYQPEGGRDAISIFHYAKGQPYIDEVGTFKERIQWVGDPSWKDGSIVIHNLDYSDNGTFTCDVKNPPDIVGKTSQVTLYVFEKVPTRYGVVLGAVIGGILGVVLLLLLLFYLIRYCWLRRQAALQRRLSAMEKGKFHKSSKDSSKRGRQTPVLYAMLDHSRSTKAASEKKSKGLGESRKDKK
Description: To all samples, 1 mL medium containing 1 µM Cy5-P0_1–25, Cy5-P0_21–45, Cy5-P0_41–65, Cy5-P0_61–85, Cy5-P0_81–105, Cy5-P0_95–120, or Cy5-P0_101–125 was added at one hour prior to imaging (incubation at 4 °C; N = 3 per tracer). Peptide solutions were sonicated for 20 s prior to addition, in order to prevent aggregation of the peptides in solution. Cy5-functionalized derivatives of a P0-specific antibody (Cy5-P0Ab-H60), the extracellular portion of P0 (Cy5-P0ex) as well as a non-P0-specific peptide (Cy5-NP-41) and non-functionalized Cy5-Maleimide were used as controls (1 µM). A lysosomal (lysotracker green; 2 µL/mL, DND-26, Thermo Fisher) and nuclear stain (Hoechst 33342; 1 mg/mL, Thermo Fisher) were added as means to localize the cell nucleus and intracellular lysosomes. For blocking studies, 5 µL of a 1 mg/mL solution of non-functionalized P0Ab was added to the cells one hour prior to addition of Cy5-P0_101–125. The synthesis of the control compounds is described in the methods section of Additional file 1: Synthesis of control compounds.
In vitro and ex vivo fluorescence confocal images were acquired using a Leica SP8 WL at sequential settings and 10 × or 63 × magnification. […] For blocking studies, quantification of the fluorescence signal intensity (N = 10 for blocked and non-blocked) in the obtained images was performed using ImageJ according to previously described methods. […]

[3] = Lipophilicity in octanol/water (LogPo/w); format: physicochemical; details: read-out: Lipophilicity (o/w), LogPo/w
Description: (§1) spectrometer (Pharmacia Biotech).
(§2) Serum protein binding and LogP o/w
(§3) functionalized Cy5 were determined as previously described (7).
(§4) The stability towards glutathione of Cy5-

[4] = serum
[5] = Stability towards glutathione; format: physicochemical
Description: as §1, §2, §3, §4

Serum protein binding = format: in vitro ADME
Description: as §1, §2, §3, §4

[6] = parameters: method as in 2 sources, one per row (each row's own in cited_ref): ref Spa et al (2) ||| ref (2) (a number printed in a supplementary file, which may have a reference list of its own: not looked up in the article's list); details: cited from earlier work
Stability in serum = details: 24 h at 37 °C, % stable
[7] = Stability at different temperatures; details: after 4 hr at -20 °C, PBS, 10–0.6 µM, relative to t=0, n = 6
Description: A stock solution of either non-functionalized Cy5 or Cy5-P0101-125 (10 µM in PBS) was diluted
1:1 in PBS to create a concentration range between 10 –0.6 µM. The absorbance and
fluorescence intensities of each sample were measured (t=0 h) prior to storing the samples
at different temperatures (i.e., -20, 0, 20 and 37 °C). After t = 4 h, the absorbance and
fluorescence intensities of each sample was measured. The relative intensities (compared to
t=0) of each concentration were averaged to obtain n = 6 per temperature setting.

[8] = ref Spa et al (2); cited from earlier work
Myelin protein zero (P0) = target: T3, Myelin protein zero (P0) (Rattus norvegicus, UniProt P06907); assay: flow cytometry saturation binding (RT4 D6P2T cells)
T3 chain: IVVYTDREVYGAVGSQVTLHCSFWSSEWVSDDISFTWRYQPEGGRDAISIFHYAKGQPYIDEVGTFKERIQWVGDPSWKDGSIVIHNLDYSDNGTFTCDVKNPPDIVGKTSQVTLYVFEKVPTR

CC[C@H](C)[C@H](NC(=O)[C@H](CO)NC(=O)CNC(C)=O)C(=O)N[C@H](C(=O)N[C@H](C(=O)N[C@@H](Cc1c[nH]cn1)C(=O)N[C@@H](CC(N)=O)C(=O)N[C@@H](CC(C)C)C(=O)N[C@@H](CC(=O)O)C(=O)N[C@@H](Cc1ccc(O)cc1)C(=O)N[C@@H](CO)C(=O)N[C@@H](CC(=O)O)C(=O)N[C@@H](CC(N)=O)C(=O)NCC(=O)N[C@H](C(=O)N[C@@H](Cc1ccccc1)C(=O)N[C@H](C(=O)N[C@@H](CSC1CC(=O)N(CCNC(=O)CCCCC[N+]2=C(/C=C/C=C/C=C3/N(CCCCS(=O)(=O)O)c4ccc(S(=O)(=O)O)cc4C3(C)C)C(C)(C)c3cc(S(=O)(=O)[O-])ccc32)C1=O)C(=O)N[C@@H](CC(=O)O)C(=O)N[C@H](C(=O)N[C@@H](CCCCN)C(=O)N[C@@H](CC(N)=O)C(=O)N1CCC[C@H]1C(=O)N1CCC[C@H]1C(=O)N[C@@H](CC(=O)O)C(N)=O)C(C)C)[C@@H](C)O)[C@@H](C)O)[C@@H](C)CC)C(C)C (stereo partly drawn) [Cy5-P0_81–105] (Ac-GSIVIHNLDYSDNGTFTC(X1)DVKNPPD-NH2)
solubility thermodynamic (Solubility in H2O): 68 µM (≈ 248 µg/mL) | Kd [1]: > 1000 nM

CC[C@H](C)[C@H](NC(=O)[C@H](CC(=O)O)NC(=O)[C@@H]1CCCN1C(=O)[C@@H]1CCCN1C(=O)[C@H](CC(N)=O)NC(=O)[C@H](CCCCN)NC(=O)[C@@H](NC(=O)[C@H](CC(=O)O)NC(=O)[C@H](C)NC(=O)[C@@H](NC(=O)[C@H](Cc1ccccc1)NC(=O)[C@@H](NC(C)=O)[C@@H](C)O)[C@@H](C)O)C(C)C)C(=O)N[C@H](C(=O)NCC(=O)N[C@@H](CCCCN)C(=O)N[C@H](C(=O)N[C@@H](CO)C(=O)N[C@@H](CCC(N)=O)C(=O)N[C@H](C(=O)N[C@H](C(=O)N[C@@H](CC(C)C)C(=O)N[C@@H](Cc1ccc(O)cc1)C(=O)N[C@H](C(=O)N[C@@H](Cc1ccccc1)C(=O)N[C@@H](CCC(=O)O)C(=O)N[C@@H](CCCCN)C(=O)N[C@@H](CSC1CC(=O)N(CCNC(=O)CCCCC[N+]2=C(/C=C/C=C/C=C3/N(CCCCS(=O)(=O)O)c4ccc(S(=O)(=O)O)cc4C3(C)C)C(C)(C)c3cc(S(=O)(=O)[O-])ccc32)C1=O)C(N)=O)C(C)C)[C@@H](C)O)C(C)C)[C@@H](C)O)C(C)C (stereo partly drawn) [Cy5-P0_95–120] (Ac-TFTADVKNPPDIVGKTSQVTLYVFEKC(X1)-NH2)
solubility thermodynamic (Solubility in H2O): 150 µM (≈ 589 µg/mL) | Kd [1]: > 1000 nM

CC[C@H](C)[C@H](NC(=O)[C@H](CC(=O)O)NC(=O)[C@@H]1CCCN1C(=O)[C@@H]1CCCN1C(=O)[C@H](CC(N)=O)NC(=O)[C@H](CCCCN)NC(C)=O)C(=O)N[C@H](C(=O)NCC(=O)N[C@@H](CCCCN)C(=O)N[C@H](C(=O)N[C@@H](CO)C(=O)N[C@@H](CCC(N)=O)C(=O)N[C@H](C(=O)N[C@H](C(=O)N[C@@H](CC(C)C)C(=O)N[C@@H](Cc1ccc(O)cc1)C(=O)N[C@H](C(=O)N[C@@H](Cc1ccccc1)C(=O)N[C@@H](CCC(=O)O)C(=O)N[C@@H](CCCCN)C(=O)N[C@H](C(=O)N1CCC[C@H]1C(=O)N[C@H](C(=O)N[C@@H](CCCNC(=N)N)C(=O)N[C@@H](Cc1ccc(O)cc1)C(=O)N[C@@H](CSC1CC(=O)N(CCNC(=O)CCCCC[N+]2=C(/C=C/C=C/C=C3/N(CCCCS(=O)(=O)O)c4ccc(S(=O)(=O)O)cc4C3(C)C)C(C)(C)c3cc(S(=O)(=O)[O-])ccc32)C1=O)C(N)=O)[C@@H](C)O)C(C)C)C(C)C)[C@@H](C)O)C(C)C)[C@@H](C)O)C(C)C (stereo partly drawn) [Cy5-P0_101–125] (Ac-KNPPDIVGKTSQVTLYVFEKVPTRYC(X1)-NH2)
Cy5-related fluorescence remaining after blocking with P0Ab [2]: 13.5 ± 7.1%

CC[C@H](C)[C@H](NC(=O)[C@H](CC(=O)O)NC(=O)[C@@H]1CCCN1C(=O)[C@@H]1CCCN1C(=O)[C@H](CC(N)=O)NC(=O)[C@H](CCCCN)NC(C)=O)C(=O)N[C@H](C(=O)NCC(=O)N[C@@H](CCCCN)C(=O)N[C@H](C(=O)N[C@@H](CO)C(=O)N[C@@H](CCC(N)=O)C(=O)N[C@H](C(=O)N[C@H](C(=O)N[C@@H](CC(C)C)C(=O)N[C@@H](Cc1ccc(O)cc1)C(=O)N[C@H](C(=O)N[C@@H](Cc1ccccc1)C(=O)N[C@@H](CCC(=O)O)C(=O)N[C@@H](CCCCN)C(=O)N[C@H](C(=O)N1CCC[C@H]1C(=O)N[C@H](C(=O)N[C@@H](CCCNC(=N)N)C(=O)N[C@@H](Cc1ccc(O)cc1)C(=O)N[C@@H](CSC1CC(=O)N(CCNC(=O)CCCCCN2C(=C/C=C/C=C/C3=[N+](CCCCS(=O)(=O)O)c4ccc(S(=O)(=O)[O-])cc4C3(C)C)C(C)(C)c3cc(S(=O)(=O)O)ccc32)C1=O)C(N)=O)[C@@H](C)O)C(C)C)C(C)C)[C@@H](C)O)C(C)C)[C@@H](C)O)C(C)C (stereo partly drawn) [Cy5-P0_101–125] (Ac-KNPPDIVGKTSQVTLYVFEKVPTRYC(X2)-NH2)
logP [3]: -1.39 ± 0.09 | remaining at 24 h [4]: 99% | degradation when incubated with glutathione ([5]; 6 hr at 37 °C): 8% | remaining at 6 h ([5]; buffer or solvent, 37 °C water bath, stock in H2O, HPLC UV/Vis): 92% | Serum protein binding (Serum protein binding): 89% ± 2% | solubility thermodynamic (Solubility in H2O): 172 µM (≈ 673 µg/mL)

CCN1/C(=C/C=C/C=C/C2=[N+](CCCCCC(=O)O)c3ccc(S(=O)(=O)O)cc3C2(C)C)C(C)(C)c2cc(S(=O)(=O)[O-])ccc21 [Cy5]
degradation when incubated with glutathione ([6]; ref (2)): 1% | Stability towards glutathione ([6]; ref Spa et al (2)): 99% | Stability in serum (Stability in serum): 98% | remaining absorbance [7]: 66 ± 8% | remaining fluorescence [7]: 80 ± 10% | Serum protein binding [8]: 6% ± 5% and 6%

B1: Cy5-P0(101-125) (peptide)
chain: Ac-KNPPDIVGKTSQVTLYVFEKVPTRYC(Cy5)-NH2
Kd (Myelin protein zero (P0)): 105 nM
